# Results taken from PubChem BioAssay (NCI).
#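 Five compound concentrations were applied to cells in 96-well plates for 48 hours; endpoints were derived by simple linear interpolation of the resulting dose-response curve. At the GI50, growth is halved. TGI: total growth inhibition.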
# Experiments:
# Assay in all cases: growth of human tumour cells (NCI), 48 h
# OVCAR-3 ovarian = tested on: OVCAR-3 ovarian
# KM12 colon = tested on: KM12 colon
# SF-539 CNS = tested on: SF-539 CNS
# MALME-3M melanoma = tested on: MALME-3M melanoma
# UO-31 renal = tested on: UO-31 renal
# COLO 205 colon = tested on: COLO 205 colon
# NCI-H522 lung = tested on: NCI-H522 lung
# SK-MEL-28 melanoma = tested on: SK-MEL-28 melanoma
# A498 renal = tested on: A498 renal
# MDA-MB-435 = tested on: MDA-MB-435
# SF-295 CNS = tested on: SF-295 CNS
# SW-620 colon = tested on: SW-620 colon
# TK-10 renal = tested on: TK-10 renal
# SR leukemia = tested on: SR leukemia
# M14 melanoma = tested on: M14 melanoma
# IGROV1 ovarian = tested on: IGROV1 ovarian
# HCT-116 colon = tested on: HCT-116 colon
# CCRF-CEM leukemia = tested on: CCRF-CEM leukemia
# RPMI-8226 leukemia = tested on: RPMI-8226 leukemia
# DU-145 prostate = tested on: DU-145 prostate
# SN12C renal = tested on: SN12C renal
# HCT-15 colon = tested on: HCT-15 colon
# NCI-H226 lung = tested on: NCI-H226 lung
# OVCAR-4 ovarian = tested on: OVCAR-4 ovarian
# HOP-92 NSCLC = tested on: HOP-92 NSCLC
# A549 NSCLC = tested on: A549 NSCLC
# MCF7 breast = tested on: MCF7 breast
# UACC-257 melanoma = tested on: UACC-257 melanoma
# SNB-19 CNS = tested on: SNB-19 CNS
# K-562 leukemia = tested on: K-562 leukemia
# SK-MEL-5 melanoma = tested on: SK-MEL-5 melanoma
# OVCAR-8 ovarian = tested on: OVCAR-8 ovarian
# OVCAR-5 ovarian = tested on: OVCAR-5 ovarian
# MOLT-4 leukemia = tested on: MOLT-4 leukemia
# 786-0 renal = tested on: 786-0 renal
# NCI/ADR-RES ovarian = tested on: NCI/ADR-RES ovarian
# ACHN renal = tested on: ACHN renal
# LOX IMVI melanoma = tested on: LOX IMVI melanoma
# HL-60(TB) leukemia = tested on: HL-60(TB) leukemia
# CAKI-1 renal = tested on: CAKI-1 renal
# EKVX NSCLC = tested on: EKVX NSCLC
# MDA-N = tested on: MDA-N
# NCI-H460 lung = tested on: NCI-H460 lung
# HS 578T breast = tested on: HS 578T breast
# SK-OV-3 ovarian = tested on: SK-OV-3 ovarian
# HT29 colon = tested on: HT29 colon
# RXF 393 renal = tested on: RXF 393 renal
# HCC-2998 colon = tested on: HCC-2998 colon
# BT-549 breast = tested on: BT-549 breast
# NCI-H23 lung = tested on: NCI-H23 lung
# UACC-62 melanoma = tested on: UACC-62 melanoma
# SK-MEL-2 melanoma = tested on: SK-MEL-2 melanoma
# PC-3 prostate = tested on: PC-3 prostate
# MDA-MB-231 breast = tested on: MDA-MB-231 breast
# SNB-75 CNS = tested on: SNB-75 CNS
# SF-268 CNS = tested on: SF-268 CNS
# HOP-62 NSCLC = tested on: HOP-62 NSCLC
# U251 CNS = tested on: U251 CNS
# T-47D breast = tested on: T-47D breast
structure (smiles),measurement,setting,value
CC(C)C(=O)[C@@]1(C)SC[C@H]2CCN=C21,TGI,OVCAR-3 ovarian,> 100 µM
same,TGI,KM12 colon,> 100 µM
same,TGI,SF-539 CNS,> 100 µM
same,TGI,MALME-3M melanoma,> 100 µM
same,TGI,UO-31 renal,> 100 µM
same,TGI,COLO 205 colon,> 100 µM
same,TGI,NCI-H522 lung,> 100 µM
same,TGI,SK-MEL-28 melanoma,> 100 µM
same,TGI,A498 renal,> 100 µM
same,TGI,MDA-MB-435,> 100 µM
same,TGI,SF-295 CNS,> 100 µM
same,TGI,SW-620 colon,> 100 µM
same,TGI,TK-10 renal,> 100 µM
same,TGI,SR leukemia,> 100 µM
same,TGI,M14 melanoma,> 100 µM
same,TGI,IGROV1 ovarian,> 100 µM
same,TGI,HCT-116 colon,> 100 µM
same,TGI,CCRF-CEM leukemia,> 100 µM
same,TGI,RPMI-8226 leukemia,> 100 µM
same,TGI,DU-145 prostate,> 100 µM
same,TGI,SN12C renal,> 100 µM
same,TGI,HCT-15 colon,> 100 µM
same,TGI,NCI-H226 lung,> 100 µM
same,TGI,OVCAR-4 ovarian,> 100 µM
same,TGI,HOP-92 NSCLC,75 µM
same,TGI,A549 NSCLC,> 100 µM
same,TGI,MCF7 breast,> 100 µM
same,TGI,UACC-257 melanoma,> 100 µM
same,TGI,SNB-19 CNS,> 100 µM
same,TGI,K-562 leukemia,> 100 µM
same,TGI,SK-MEL-5 melanoma,> 100 µM
same,TGI,OVCAR-8 ovarian,> 100 µM
same,TGI,OVCAR-5 ovarian,> 100 µM
same,TGI,MOLT-4 leukemia,> 100 µM
same,TGI,786-0 renal,> 100 µM
same,TGI,NCI/ADR-RES ovarian,> 100 µM
same,TGI,ACHN renal,> 100 µM
same,TGI,LOX IMVI melanoma,> 100 µM
same,TGI,HL-60(TB) leukemia,> 100 µM
same,TGI,CAKI-1 renal,> 100 µM
same,TGI,EKVX NSCLC,> 100 µM
same,TGI,MDA-N,> 100 µM
same,TGI,NCI-H460 lung,> 100 µM
same,TGI,HS 578T breast,> 100 µM
same,TGI,SK-OV-3 ovarian,> 100 µM
same,TGI,HT29 colon,> 100 µM
same,TGI,RXF 393 renal,> 100 µM
same,TGI,HCC-2998 colon,> 100 µM
same,TGI,BT-549 breast,> 100 µM
same,TGI,NCI-H23 lung,> 100 µM
same,TGI,UACC-62 melanoma,> 100 µM
CCc1cc2c(oc3cc4ccccc4cc32)c(=O)[nH]1,TGI,OVCAR-3 ovarian,> 10 µM
same,TGI,KM12 colon,> 10 µM
same,TGI,SK-MEL-2 melanoma,> 10 µM
same,TGI,SF-539 CNS,> 10 µM
same,TGI,MALME-3M melanoma,> 10 µM
same,TGI,UO-31 renal,> 10 µM
same,TGI,NCI-H522 lung,> 10 µM
same,TGI,PC-3 prostate,> 10 µM
same,TGI,SF-295 CNS,> 10 µM
same,TGI,SW-620 colon,> 10 µM
same,TGI,TK-10 renal,> 10 µM
same,TGI,SR leukemia,> 10 µM
same,TGI,M14 melanoma,> 10 µM
same,TGI,IGROV1 ovarian,> 10 µM
same,TGI,HCT-116 colon,> 10 µM
same,TGI,DU-145 prostate,> 10 µM
same,TGI,SN12C renal,> 10 µM
same,TGI,HCT-15 colon,> 10 µM
same,TGI,MDA-MB-231 breast,> 10 µM
same,TGI,NCI-H226 lung,> 10 µM
same,TGI,OVCAR-4 ovarian,> 10 µM
same,TGI,HOP-92 NSCLC,> 10 µM
same,TGI,A549 NSCLC,> 10 µM
same,TGI,UACC-257 melanoma,> 10 µM
same,TGI,SNB-19 CNS,> 10 µM
same,TGI,SNB-75 CNS,> 10 µM
same,TGI,OVCAR-8 ovarian,> 10 µM
same,TGI,OVCAR-5 ovarian,> 10 µM
same,TGI,786-0 renal,> 10 µM
same,TGI,NCI/ADR-RES ovarian,> 10 µM
same,TGI,ACHN renal,> 10 µM
same,TGI,LOX IMVI melanoma,> 10 µM
same,TGI,HL-60(TB) leukemia,> 10 µM
same,TGI,EKVX NSCLC,> 10 µM
same,TGI,MDA-N,> 10 µM
same,TGI,NCI-H460 lung,> 10 µM
same,TGI,HS 578T breast,> 10 µM
same,TGI,HT29 colon,> 10 µM
same,TGI,RXF 393 renal,> 10 µM
same,TGI,HCC-2998 colon,> 10 µM
same,TGI,BT-549 breast,> 10 µM
same,TGI,SF-268 CNS,> 10 µM
CCn1c(-c2nonc2N)nc2c(C#CC(C)(C)O)nc(OC[C@H](N)c3ccccc3)cc21,GI50,HOP-62 NSCLC,5.54 µM
same,TGI,HOP-62 NSCLC,9.99 µM
same,GI50,OVCAR-3 ovarian,3.56 µM
same,TGI,OVCAR-3 ovarian,6.84 µM
same,GI50,KM12 colon,2.99 µM
same,TGI,KM12 colon,6.39 µM
same,GI50,SK-MEL-2 melanoma,4.12 µM
same,TGI,SK-MEL-2 melanoma,8.24 µM
same,GI50,SF-539 CNS,2.35 µM
same,TGI,SF-539 CNS,6.07 µM
same,GI50,U251 CNS,3.21 µM
same,TGI,U251 CNS,6.67 µM
same,GI50,MALME-3M melanoma,4.69 µM
same,TGI,MALME-3M melanoma,9.35 µM
same,GI50,UO-31 renal,2.91 µM
same,TGI,UO-31 renal,6.83 µM
same,GI50,COLO 205 colon,3.52 µM
same,TGI,COLO 205 colon,7 µM
same,GI50,NCI-H522 lung,4.47 µM
same,TGI,NCI-H522 lung,8.63 µM
same,GI50,SK-MEL-28 melanoma,4.75 µM
same,TGI,SK-MEL-28 melanoma,8.56 µM
same,GI50,A498 renal,0.157 µM
same,TGI,A498 renal,7.63 µM
same,GI50,MDA-MB-435,4.79 µM
same,TGI,MDA-MB-435,9.42 µM
same,GI50,PC-3 prostate,3.92 µM
same,TGI,PC-3 prostate,8.87 µM
same,GI50,SF-295 CNS,2.95 µM
same,TGI,SF-295 CNS,7.22 µM
same,GI50,SW-620 colon,4.47 µM
same,TGI,SW-620 colon,8.67 µM
same,GI50,TK-10 renal,2.69 µM
same,TGI,TK-10 renal,6.37 µM
same,GI50,SR leukemia,6.24 µM
same,TGI,SR leukemia,16.3 µM
same,GI50,M14 melanoma,3.94 µM
same,TGI,M14 melanoma,7.47 µM
same,GI50,IGROV1 ovarian,2.63 µM
same,TGI,IGROV1 ovarian,7.23 µM
same,GI50,HCT-116 colon,3.55 µM
same,TGI,HCT-116 colon,6.99 µM
same,GI50,CCRF-CEM leukemia,3.65 µM
same,TGI,CCRF-CEM leukemia,24.9 µM
same,GI50,RPMI-8226 leukemia,6.04 µM
same,TGI,RPMI-8226 leukemia,14 µM
same,GI50,DU-145 prostate,3.26 µM
same,TGI,DU-145 prostate,6.47 µM
same,GI50,SN12C renal,3.67 µM
same,TGI,SN12C renal,7.38 µM
same,GI50,HCT-15 colon,2.53 µM
same,TGI,HCT-15 colon,6.73 µM
same,GI50,MDA-MB-231 breast,4.35 µM
same,TGI,MDA-MB-231 breast,8.83 µM
same,GI50,NCI-H226 lung,11.9 µM
same,TGI,NCI-H226 lung,15.8 µM
same,GI50,OVCAR-4 ovarian,5.01 µM
same,TGI,OVCAR-4 ovarian,9.61 µM
same,GI50,HOP-92 NSCLC,2.37 µM
same,TGI,HOP-92 NSCLC,7.38 µM
same,GI50,A549 NSCLC,3.69 µM
same,TGI,A549 NSCLC,7.45 µM
same,GI50,MCF7 breast,2.92 µM
same,TGI,MCF7 breast,6.16 µM
same,GI50,UACC-257 melanoma,5.18 µM
same,TGI,UACC-257 melanoma,9.43 µM
same,GI50,SNB-19 CNS,7.3 µM
same,TGI,SNB-19 CNS,20.5 µM
same,GI50,K-562 leukemia,5.09 µM
same,TGI,K-562 leukemia,14 µM
same,GI50,SNB-75 CNS,0.926 µM
same,TGI,SNB-75 CNS,4.65 µM
same,GI50,SK-MEL-5 melanoma,4.21 µM
same,TGI,SK-MEL-5 melanoma,7.64 µM
same,GI50,OVCAR-8 ovarian,4.21 µM
same,TGI,OVCAR-8 ovarian,9.44 µM
same,GI50,OVCAR-5 ovarian,5.69 µM
same,TGI,OVCAR-5 ovarian,9.99 µM
same,GI50,MOLT-4 leukemia,3.09 µM
same,TGI,MOLT-4 leukemia,14.7 µM
same,GI50,786-0 renal,1.91 µM
same,TGI,786-0 renal,5.43 µM
same,GI50,NCI/ADR-RES ovarian,5.31 µM
same,TGI,NCI/ADR-RES ovarian,13.9 µM
same,GI50,ACHN renal,2.6 µM
same,TGI,ACHN renal,5.78 µM
same,GI50,LOX IMVI melanoma,3.84 µM
same,TGI,LOX IMVI melanoma,7.89 µM
same,GI50,HL-60(TB) leukemia,5.23 µM
same,TGI,HL-60(TB) leukemia,10.1 µM
same,GI50,T-47D breast,2.88 µM
same,TGI,T-47D breast,7.53 µM
same,GI50,CAKI-1 renal,3.94 µM
same,TGI,CAKI-1 renal,8.93 µM
same,GI50,EKVX NSCLC,10.8 µM
same,TGI,EKVX NSCLC,18.1 µM
same,GI50,NCI-H460 lung,2.76 µM
same,TGI,NCI-H460 lung,6.31 µM
same,GI50,HS 578T breast,1.8 µM
same,TGI,HS 578T breast,7.28 µM
same,GI50,SK-OV-3 ovarian,1.56 µM
same,TGI,SK-OV-3 ovarian,5.71 µM
same,GI50,HT29 colon,4.11 µM
same,TGI,HT29 colon,8.81 µM
same,GI50,RXF 393 renal,1.28 µM
same,TGI,RXF 393 renal,4.73 µM
same,GI50,HCC-2998 colon,3.74 µM
same,TGI,HCC-2998 colon,7.59 µM
same,GI50,BT-549 breast,3.39 µM
same,TGI,BT-549 breast,6.74 µM
same,GI50,NCI-H23 lung,5.21 µM
same,TGI,NCI-H23 lung,12.4 µM
same,GI50,UACC-62 melanoma,4.24 µM
same,TGI,UACC-62 melanoma,8.08 µM
same,GI50,SF-268 CNS,4.94 µM
same,TGI,SF-268 CNS,11.2 µM
